According to ChEMBL document CHEMBL4340527, “Discovery of potent anti-inflammatory 4-(4,5,6,7-tetrahydrofuro[3,2-c]pyridin-2-yl) pyrimidin-2-amines for use as Janus kinase inhibitors” (Bioorg Med Chem, 2019):

Columns and labels:
[1] = target: T1, Tyrosine-protein kinase JAK3 (Homo sapiens, UniProt P52333)
T1 sequence (P52333 whole entry): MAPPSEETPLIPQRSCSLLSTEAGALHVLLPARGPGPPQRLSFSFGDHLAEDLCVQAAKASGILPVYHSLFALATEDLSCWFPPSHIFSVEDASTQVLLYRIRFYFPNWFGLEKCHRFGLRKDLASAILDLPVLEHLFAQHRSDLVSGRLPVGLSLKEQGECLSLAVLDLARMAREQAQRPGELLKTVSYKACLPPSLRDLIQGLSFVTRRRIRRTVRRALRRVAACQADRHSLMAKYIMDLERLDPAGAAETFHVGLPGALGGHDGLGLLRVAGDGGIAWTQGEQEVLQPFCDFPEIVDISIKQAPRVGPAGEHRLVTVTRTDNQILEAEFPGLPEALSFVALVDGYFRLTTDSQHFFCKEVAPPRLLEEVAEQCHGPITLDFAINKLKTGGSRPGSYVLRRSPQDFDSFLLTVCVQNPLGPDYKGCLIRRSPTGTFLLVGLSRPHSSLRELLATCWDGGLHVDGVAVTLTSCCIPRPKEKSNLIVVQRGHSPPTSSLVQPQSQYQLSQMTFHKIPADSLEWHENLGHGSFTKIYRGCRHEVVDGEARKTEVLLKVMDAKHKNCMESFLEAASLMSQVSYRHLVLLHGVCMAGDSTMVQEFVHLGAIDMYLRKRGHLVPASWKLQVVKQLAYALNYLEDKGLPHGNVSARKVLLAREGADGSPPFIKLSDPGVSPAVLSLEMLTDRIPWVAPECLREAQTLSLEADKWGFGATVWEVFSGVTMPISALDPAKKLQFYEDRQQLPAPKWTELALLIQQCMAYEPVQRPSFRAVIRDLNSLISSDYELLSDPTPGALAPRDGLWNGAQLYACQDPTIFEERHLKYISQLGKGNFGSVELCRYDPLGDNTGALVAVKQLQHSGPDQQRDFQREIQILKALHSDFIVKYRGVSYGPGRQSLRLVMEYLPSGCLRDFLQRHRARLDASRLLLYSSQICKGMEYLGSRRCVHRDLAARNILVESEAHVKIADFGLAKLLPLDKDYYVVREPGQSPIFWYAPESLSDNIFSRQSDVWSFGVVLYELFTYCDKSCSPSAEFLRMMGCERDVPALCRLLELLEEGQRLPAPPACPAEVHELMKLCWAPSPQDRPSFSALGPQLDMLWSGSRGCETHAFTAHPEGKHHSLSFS
Description: Inhibition of JAK3 (unknown origin) using TK-substrate-biotin as substrate preincubated for 5 mins followed by substrate addition and measured by 30 mins by HTRF assay

[2] = target: Tyrosine-protein kinase JAK2 (Homo sapiens, UniProt O60674)
Description: Inhibition of JAK2 (unknown origin) using TK-substrate-biotin as substrate preincubated for 5 mins followed by substrate addition and measured by 30 mins by HTRF assay

[3] = rat, in vivo, po, 10 mg/kg
[4] = Clearance in Sprague-Dawley rat at 2.5 mg/kg, iv after 2 mins to 24 hrs by LC-MS/MS analysis; format: ADME, organism-based; settings: in vivo
hERG (KCNH2) [5] = target: T2, hERG (KCNH2) (Homo sapiens, UniProt Q12809); assay: Inhibition of human ERG at 0.3 uM relative to control
[6] = Half life in Sprague-Dawley rat at 2.5 mg/kg, iv after 2 mins to 24 hrs by LC-MS/MS analysis; format: ADME, organism-based; settings: in vivo
[7] = MRT (0 to t) in Sprague-Dawley rat at 2.5 mg/kg, iv after 2 mins to 24 hrs by LC-MS/MS analysis; format: ADME, organism-based; settings: in vivo
[8] = target: Voltage-gated inwardly rectifying potassium channel KCNH2 (Homo sapiens, UniProt Q12809); assay: Inhibition of human ERG
[9] = Cmax in Sprague-Dawley rat at 2.5 mg/kg, iv after 2 mins to 24 hrs by LC-MS/MS analysis; format: ADME, organism-based; set-up: dose 2.5 mg/kg, route intravenous; settings: in vivo
in vivo [10] = settings: Sprague-Dawley, rat, po, 10 mg/kg
in vivo [11] = settings: Sprague-Dawley, rat, po, 10 mg/kg; remark: listed apart in the source
[12] = Volume of distribution in Sprague-Dawley rat at 2.5 mg/kg, iv after 2 mins to 24 hrs by LC-MS/MS analysis; format: ADME, organism-based; settings: in vivo, read-out: Vz
[13] = target: Tyrosine-protein kinase JAK1 (Homo sapiens, UniProt P23458)
Description: Inhibition of JAK1 (unknown origin) using TK-substrate-biotin as substrate preincubated for 5 mins followed by substrate addition and measured by 30 mins by HTRF assay

hERG (KCNH2) [14] = target: T2, hERG (KCNH2); assay: Inhibition of human ERG at 30 uM relative to control
Rattus norvegicus [15] = format: functional
[16] = target: Non-receptor tyrosine-protein kinase TYK2 (Homo sapiens, UniProt P29597)
Description: Inhibition of Tyk2 (unknown origin)

in vivo [17] = settings: Sprague-Dawley, rat, po, 10 mg/kg; remark: listed apart in the source
[18] = AUC (0 to t) in Sprague-Dawley rat at 2.5 mg/kg, iv after 2 mins to 24 hrs by LC-MS/MS analysis; format: ADME, organism-based; set-up: time 0.033-24 hr, dose 2.5 mg/kg, route intravenous; settings: in vivo
in vivo [19] = settings: Sprague-Dawley, rat, po, 10 mg/kg; remark: listed apart in the source
in vivo [20] = settings: rat, po, 5 mg/kg
Rattus norvegicus [21] = format: functional; remark: listed apart in the source
[22] = Oral bioavailability in Sprague-Dawley rat at 10 mg/kg after 2 mins to 24 hrs by LC-MS/MS analysis; format: ADME, organism-based; settings: in vivo
in vivo [23] = settings: Sprague-Dawley, rat, po, 10 mg/kg; remark: listed apart in the source
hERG (KCNH2) [24] = target: T2, hERG (KCNH2); assay: Inhibition of human ERG at 3 uM relative to control

Chain of Tyrosine-protein kinase JAK2 (O60674 whole entry): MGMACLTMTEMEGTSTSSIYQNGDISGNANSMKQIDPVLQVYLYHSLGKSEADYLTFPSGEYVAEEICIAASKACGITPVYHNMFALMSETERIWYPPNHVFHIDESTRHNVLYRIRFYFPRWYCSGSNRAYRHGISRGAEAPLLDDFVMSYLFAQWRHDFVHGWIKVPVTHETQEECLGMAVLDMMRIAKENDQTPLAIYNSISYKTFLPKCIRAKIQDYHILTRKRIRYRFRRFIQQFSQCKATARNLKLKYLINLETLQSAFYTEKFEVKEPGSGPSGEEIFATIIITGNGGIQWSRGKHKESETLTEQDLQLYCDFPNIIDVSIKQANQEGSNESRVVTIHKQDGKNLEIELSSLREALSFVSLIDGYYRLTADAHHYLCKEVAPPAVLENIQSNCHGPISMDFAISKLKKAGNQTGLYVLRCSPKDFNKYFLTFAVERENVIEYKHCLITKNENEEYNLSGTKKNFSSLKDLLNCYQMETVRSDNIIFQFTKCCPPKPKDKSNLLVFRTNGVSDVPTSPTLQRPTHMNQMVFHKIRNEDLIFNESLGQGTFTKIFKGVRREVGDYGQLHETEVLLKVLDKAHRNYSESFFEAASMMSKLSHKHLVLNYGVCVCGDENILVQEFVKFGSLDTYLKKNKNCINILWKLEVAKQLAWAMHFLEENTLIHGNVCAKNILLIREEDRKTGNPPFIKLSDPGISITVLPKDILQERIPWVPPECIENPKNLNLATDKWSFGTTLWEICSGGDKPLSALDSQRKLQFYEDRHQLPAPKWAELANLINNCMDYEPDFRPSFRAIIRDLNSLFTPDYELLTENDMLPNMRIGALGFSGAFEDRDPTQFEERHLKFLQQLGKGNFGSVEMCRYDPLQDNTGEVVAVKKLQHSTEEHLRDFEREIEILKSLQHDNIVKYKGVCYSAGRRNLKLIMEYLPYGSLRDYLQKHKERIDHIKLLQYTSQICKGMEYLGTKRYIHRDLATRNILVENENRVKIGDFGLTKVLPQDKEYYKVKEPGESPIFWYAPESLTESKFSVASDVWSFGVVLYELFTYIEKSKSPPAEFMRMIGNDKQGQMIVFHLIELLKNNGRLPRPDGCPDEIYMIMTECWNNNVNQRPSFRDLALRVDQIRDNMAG
T2 sequence (Q12809 whole entry): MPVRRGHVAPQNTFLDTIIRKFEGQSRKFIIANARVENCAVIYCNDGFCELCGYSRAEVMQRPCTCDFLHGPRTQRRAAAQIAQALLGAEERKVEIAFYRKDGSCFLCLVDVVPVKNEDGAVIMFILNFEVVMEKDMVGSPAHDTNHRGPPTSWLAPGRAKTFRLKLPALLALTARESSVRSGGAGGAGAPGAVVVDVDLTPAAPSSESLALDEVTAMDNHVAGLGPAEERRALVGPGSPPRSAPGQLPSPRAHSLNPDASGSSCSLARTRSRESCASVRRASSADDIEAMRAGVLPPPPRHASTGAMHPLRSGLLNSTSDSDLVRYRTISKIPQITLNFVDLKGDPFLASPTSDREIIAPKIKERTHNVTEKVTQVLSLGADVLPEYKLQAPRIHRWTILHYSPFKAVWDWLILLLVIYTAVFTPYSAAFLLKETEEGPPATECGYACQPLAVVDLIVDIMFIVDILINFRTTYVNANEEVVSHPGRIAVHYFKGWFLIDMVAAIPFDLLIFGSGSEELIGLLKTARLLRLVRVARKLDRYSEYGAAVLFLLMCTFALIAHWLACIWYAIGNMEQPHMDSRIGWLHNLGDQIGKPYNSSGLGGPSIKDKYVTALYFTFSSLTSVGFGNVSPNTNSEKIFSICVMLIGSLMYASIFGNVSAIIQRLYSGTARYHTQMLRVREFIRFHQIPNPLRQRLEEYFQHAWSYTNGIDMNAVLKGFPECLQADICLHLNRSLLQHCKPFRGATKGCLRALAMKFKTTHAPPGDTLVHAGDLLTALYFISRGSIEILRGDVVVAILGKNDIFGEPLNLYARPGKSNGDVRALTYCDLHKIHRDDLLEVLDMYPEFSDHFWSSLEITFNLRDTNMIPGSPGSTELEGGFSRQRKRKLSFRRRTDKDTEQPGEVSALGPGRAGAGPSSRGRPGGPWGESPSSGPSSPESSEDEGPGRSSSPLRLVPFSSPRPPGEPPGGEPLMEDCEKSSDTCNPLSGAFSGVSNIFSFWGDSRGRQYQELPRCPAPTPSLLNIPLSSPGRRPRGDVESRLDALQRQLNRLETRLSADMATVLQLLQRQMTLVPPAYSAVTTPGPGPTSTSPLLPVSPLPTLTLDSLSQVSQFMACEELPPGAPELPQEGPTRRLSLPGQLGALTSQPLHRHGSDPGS
Chain of Non-receptor tyrosine-protein kinase TYK2 (P29597 whole entry): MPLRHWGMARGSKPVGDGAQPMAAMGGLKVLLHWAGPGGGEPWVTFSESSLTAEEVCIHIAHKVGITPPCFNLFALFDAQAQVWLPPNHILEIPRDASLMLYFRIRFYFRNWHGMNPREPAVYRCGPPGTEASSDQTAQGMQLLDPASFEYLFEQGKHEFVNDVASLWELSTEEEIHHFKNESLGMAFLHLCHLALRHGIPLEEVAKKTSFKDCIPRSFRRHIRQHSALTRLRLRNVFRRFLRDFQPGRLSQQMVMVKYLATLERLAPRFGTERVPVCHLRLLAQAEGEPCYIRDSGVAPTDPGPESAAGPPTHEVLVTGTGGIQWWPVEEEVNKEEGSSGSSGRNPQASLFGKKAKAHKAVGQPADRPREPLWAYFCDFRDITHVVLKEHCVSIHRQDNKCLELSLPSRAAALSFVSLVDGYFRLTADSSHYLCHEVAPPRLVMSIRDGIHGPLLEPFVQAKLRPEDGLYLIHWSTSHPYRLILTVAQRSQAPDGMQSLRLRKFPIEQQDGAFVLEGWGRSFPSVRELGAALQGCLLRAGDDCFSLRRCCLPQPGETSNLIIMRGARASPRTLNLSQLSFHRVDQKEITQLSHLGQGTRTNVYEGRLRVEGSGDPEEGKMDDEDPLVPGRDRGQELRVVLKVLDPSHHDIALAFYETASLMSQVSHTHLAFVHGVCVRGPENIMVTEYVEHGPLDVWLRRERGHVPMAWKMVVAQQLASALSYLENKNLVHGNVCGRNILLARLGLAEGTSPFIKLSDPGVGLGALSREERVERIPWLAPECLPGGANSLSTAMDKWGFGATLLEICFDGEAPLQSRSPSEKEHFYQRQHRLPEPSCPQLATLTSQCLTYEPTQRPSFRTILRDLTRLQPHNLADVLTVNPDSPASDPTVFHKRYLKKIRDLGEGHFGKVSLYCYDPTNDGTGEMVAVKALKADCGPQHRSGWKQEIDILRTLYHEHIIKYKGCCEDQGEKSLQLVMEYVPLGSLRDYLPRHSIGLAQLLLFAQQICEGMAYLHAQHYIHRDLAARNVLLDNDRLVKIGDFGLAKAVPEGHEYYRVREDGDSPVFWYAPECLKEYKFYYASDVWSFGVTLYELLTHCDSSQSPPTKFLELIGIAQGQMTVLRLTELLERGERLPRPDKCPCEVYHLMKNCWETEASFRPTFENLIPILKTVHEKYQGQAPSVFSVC
Chain of Voltage-gated inwardly rectifying potassium channel KCNH2 (Q12809 whole entry): as the sequence (Q12809 whole entry) above

SMILES: COc1cc(Nc2ncc(C)c(-c3cc4c(o3)CCN(C(=O)CC#N)C4)n2)cc(OC)c1OC
- IC50 [1]: 12 nM
- IC50 [2]: 1.6 nM

SMILES: Cc1cnc(Nc2cc(F)c(N3CCOCC3)c(F)c2)nc1-c1cc2c(o1)CCN(C(=O)CC#N)C2
- IC50 [1]: 88.1 nM
- IC50 [2]: 4.2 nM

SMILES: Cc1cnc(Nc2cccc(N3CCN(C)CC3)c2)nc1-c1cc2c(o1)CCN(S(C)(=O)=O)C2
- IC50 [1]: 751 nM
- IC50 [2]: 112 nM

SMILES: Cc1cnc(Nc2ccccc2)nc1-c1cc2c(o1)CCN(S(C)(=O)=O)C2
- IC50 [1]: 153 nM
- IC50 [2]: 2.7 nM

SMILES: Cc1cnc(Nc2cc(F)c(N3CCOCC3)c(F)c2)nc1-c1cc2c(o1)CCN(S(C)(=O)=O)C2
- IC50 [1]: 195 nM
- IC50 [2]: 3.7 nM

SMILES: Cc1cnc(Nc2ccc(N3CCOCC3)cc2)nc1-c1cc2c(o1)CCN(C(=O)c1cccc(C#N)c1)C2
- IC50 [1]: 552 nM
- IC50 [2]: 35.4 nM

SMILES: CCC(=O)N1CCc2oc(-c3nc(Nc4ccc(N5CCOCC5)cc4)ncc3C)cc2C1
- IC50 [1]: 112 nM
- IC50 [2]: 5.8 nM

SMILES: Cc1cnc(Nc2ccc(-n3ccnc3)cc2)nc1-c1cc2c(o1)CCN(S(C)(=O)=O)C2
- IC50 [1]: 91.3 nM
- IC50 [2]: 10.8 nM

SMILES: Cc1cnc(Nc2ccc(F)cc2)nc1-c1cc2c(o1)CCN(C(=O)CC#N)C2
- IC50 [1]: 95.7 nM

SMILES: Cc1cnc(Nc2ccc(OCCN3CCCC3)cc2)nc1-c1cc2c(o1)CCN(S(C)(=O)=O)C2
- IC50 [1]: 56.7 nM
- IC50 [2]: 4.1 nM

SMILES: Cc1cnc(Nc2ccc(N3CCN(C)CC3)cc2)nc1-c1cc2c(o1)CCN(C(=O)CC#N)C2
- IC50 [1]: 33.7 nM
- IC50 [2]: 1.6 nM

SMILES: Cc1cnc(Nc2ccc(N3CCOCC3)cc2)nc1-c1cc2c(o1)CCN(C(=O)C(C)C)C2
- IC50 [1]: 32.4 nM
- IC50 [2]: 6.4 nM

SMILES: Cc1cnc(Nc2ccc(N3CCOCC3)cc2)nc1-c1cc2c(o1)CCN(C(=O)c1ccc(C#N)cc1)C2
- IC50 [1]: 431 nM
- IC50 [2]: 28.8 nM

SMILES: Cc1cnc(Nc2ccc([N+](=O)[O-])cc2)nc1-c1cc2c(o1)CCN(C(=O)CC#N)C2
- IC50 [1]: 275 nM
- IC50 [2]: 14.2 nM

SMILES: Cc1cnc(Nc2ccc(OCCN3CCCC3)cc2)nc1-c1cc2c(o1)CCN(C(=O)CC#N)C2
- IC50 [1]: 52 nM
- IC50 [2]: 9.6 nM

SMILES: Cc1cnc(Nc2ccc(F)cc2)nc1-c1cc2c(o1)CCN(S(C)(=O)=O)C2
- IC50 [1]: 5080 nM
- IC50 [2]: 12.1 nM

SMILES: Cc1cnc(Nc2ccccc2)nc1-c1cc2c(o1)CCN(C(=O)CC#N)C2
- IC50 [1]: 94.7 nM
- IC50 [2]: 2.9 nM

SMILES: Cc1cnc(Nc2ccc(N3CCOCC3)cc2)nc1-c1cc2c(o1)CCN(C(=O)CC#N)C2
- Vz [3]: 17.82 L/kg
- clearance [4]: 42 mL/min/kg
- inhibition at 0.3 µM (hERG (KCNH2) [5]): 1.9%
- half-life [6]: 0.55 h
- MRT last [7]: 0.5 h
- IC50 [8]: > 30000 nM
- Cmax [9]: 2340 ng/mL
- half-life (in vivo [10]): 2.91 h
- CL/F (in vivo [11]): 71.8 mL/min/kg
- Vd [12]: 2 L/kg
- IC50 [13]: 5.1 nM
- inhibition at 30 µM (hERG (KCNH2) [14]): 16.4%
- IC50 [1]: 7.6 to 13.5 nM
- Activity (Rattus norvegicus [15]): 113.2%
- IC50 [16]: 3 nM
- Cmax (in vivo [17]): 540 ng/mL
- AUC(0-t) [18]: 1000 ng·h/mL
- AUC(0-t) (in vivo [19]): 2190 ng·h/mL
- AUC at 240 h (in vivo [20]): 1490 ng·h/mL
- IC50 [2]: 0.5 to 0.7 nM
- Activity (Rattus norvegicus [21]): 14.1%
- bioavailability [22]: 54.8%
- MRT last (in vivo [23]): 3.49 h
- inhibition at 3 µM (hERG (KCNH2) [24]): 11.2%
